Reference: patent publication US20220062429A1, “METHOD FOR ENHANCING EXPRESSION OF MOISTURIZING-RELATED SUBSTANCE IN EPIDERMIS” (J-Network, Inc., priority 2020, published 2022)

Key:
Assay type in all cases: cell-based
[1] = system: profilaggrin mRNA; assay: Amplification test of profilaggrin mRNA (quantitative real-time PCR) in normal human epidermal cells; settings: for expression of profilaggrin mRNA, relative to N.C. = 100%: corrected with cyclophilin
Procedure: After samples were prepared using human epidermal cells, RNA of the cells was extracted and the quantity of mRNA of profilaggrin was determined.
Normal human epidermal cells (hereinafter, “epidermal cells”) (from Kurabo Industries Ltd.) were seeded at a cell density of 2.0×10^4 cells/well in a 96-well culture plate using a growth medium (KG2 medium: from Kurabo Industries Ltd.). After the cells were cultured at 37° C. under 5% carbon dioxide for 24 hours, the media were replaced with media (KB2 media not containing bovine pituitary extract: from Kurabo Industries Ltd.) to which Samples 11 to 18 described below were respectively added. Each of Samples 11, 14, and 17 as controls is a medium only. Samples 12, 13, 15, 16, and 18 are different from one another in the type and/or concentration (mass % with respect to the medium) of a diacylglycerol PEG adduct. • Sample 11: Control (N.C.) • Sample 12: GDS12 (0.100%) • Sample 13: GDS12 (0.050%) • Sample 14: Control (N.C.) • Sample 15: GDM12 (0.001%) • Sample 16: GDM12 (0.004%) • Sample 17: Control (N.C.) • Sample 18: GDS23 (0.002%)
Thereafter, the epidermal cells were cultured at 37° C. under 5% carbon dioxide for 3 hours. Subsequently, RNA was extracted from the cells.
(§1) Reverse transcription of the extracted RNA was performed to generate cDNA, and the quantity of profilaggrin mRNA was determined by quantitative real-time PCR expression analysis. Cyclophilin was used as an internal standard. In the analysis, the expression level of profilaggrin was corrected with a value of the expression level of cyclophilin as the internal standard in the same sample, and thereafter the correction value for each sample was calculated assuming the correction value for the control N.C. as 100%.

[2] = system: caspase-14 mRNA; assay: Caspase-14 mRNA expression (quantitative real-time PCR) in normal human epidermal cells; settings: for expression of caspase-14 mRNA, relative to N.C. = 100% / expression of caspase-14 mRNA versus N.C.: 3 hours; for expression of caspase-14 mRNA, relative to N.C. = 100%: corrected with cyclophilin
Procedure: After samples were prepared using human epidermal cells, RNA of the cells was extracted and the quantity of caspase-14 mRNA was determined.
Normal human epidermal cells (hereinafter, “epidermal cells”) (from Kurabo Industries Ltd.) were seeded at a cell density of 2.0×10^4 cells/well in a 96-well culture plate using a growth medium (KG2 medium: from Kurabo Industries Ltd.). After the cells were cultured at 37° C. under 5% carbon dioxide for 24 hours, the media were replaced with media (KB2 media not containing bovine pituitary extract: from Kurabo Industries Ltd.) to which Samples 19 to 26 described below were respectively added. Each of Samples 19 and 24 as controls is a medium only. Samples 20, 21, 22, 23, and 25 are different from one another in the type and/or concentration (mass % with respect to the medium) of a diacylglycerol PEG adduct contained in the medium. • Sample 19: Control (N.C.) • Sample 20: GDM12 (0.001%) • Sample 21: GDM12 (0.004%) • Sample 22: GDM12 (0.020%) • Sample 23: GDM12 (0.100%) • Sample 24: Control (N.C.) • Sample 25: GDS23 (0.0004%)
Subsequently, the epidermal cells were cultured at 37° C. under 5% carbon dioxide for 3 hours. Subsequently, RNA was extracted from the cells.
as §1, with “of caspase-14” for “of profilaggrin”, “value of” for “value for”, “was calculated,” for “was calculated”, “control sample” for “control N.C.”

[3] = system: filaggrin; assay: Test 2 on promotion of filaggrin production: dot blotting in normal human epidermal cells; settings: 72 hours
Procedure: After samples were prepared using human epidermal cells, production of filaggrin was observed by dot blotting and the quantity of filaggrin was determined.
Normal human epidermal cells (hereinafter, “epidermal cells”) (from Kurabo Industries Ltd.) were seeded at a cell density of 1.0×10^4 cells/well in a 96-well culture plate using a growth medium (KG2 medium: from Kurabo Industries Ltd.). After the cells were cultured at 37° C. under 5% carbon dioxide for 24 hours, the medium was replaced with media (KB2 media not containing bovine pituitary extract: from Kurabo Industries Ltd.) to which Samples 5 to 10 described below were respectively added. Each of Samples 5 and 8 as controls is a medium only. Samples 6, 7, 9, and 10 are different from one another in the type and/or concentration (mass % with respect to the medium) of a diacylglycerol PEG adduct to be added to the medium. • Sample 5: Control (N.C.) • Sample 6: GDM12 (0.0005%) • Sample 7: GDM12 (0.0010%) • Sample 8: Control (N.C.) • Sample 9: GDS23 (0.0025%) • Sample 10: GDS23 (0.0050%)
Thereafter, for each sample, the epidermal cells were cultured at 37° C. under 5% carbon dioxide for 72 hours. Subsequently, the epidermal cells were cleaned with PBS(−), 0.5% Triton X-100 (containing 2 mM PMSF) was then added, and thereafter the cells were disrupted by sonication.
A fixed amount of the suspension of disrupted cells was blotted on a nitrocellulose membrane and dried overnight. The transfer membrane after drying was immersed in a PBS solution of 1% BSA and blocked at room temperature for 1 hour. Thereafter, the membrane was cleaned with PBS(−), and an anti-human filaggrin antibody (Anti-Filaggrin: from ARGENE SA) was added onto the transfer membrane at a dilution concentration of 1:4000. The mixture was made to react at room temperature for 1 hour, and then the transfer membrane was cleaned with a PBS solution.
Thereafter, an immunohistochemical staining reagent (Histofine Simple Stain MAX-PO(M): from Nichirei Biosciences Inc.) was added onto the transfer membrane at a dilution concentration of 1:100 and was made to react at room temperature for 1 hour. […]
The brightness of each spot in the spot image obtained by dot blotting was quantitively determined using an analyzer (CS Analyzer Version 2.0: from ATTO Corporation).
FIG. 2a illustrates respective spot images for Samples 5, 6 and 7 related to GDM12, and FIG. 2b illustrates the production quantity of filaggrin for each sample determined based on FIG. 2a. The vertical axis of the graph represents the relative quantity when the quantity for the control N.C. is assumed as 100% (the same representation is also applied to graphs in drawings that will be described later).

[4] = system: filaggrin; assay: Test 1 on promotion of filaggrin production: filaggrin immunostaining of human three-dimensional cultured epidermis model; settings: 2%, 3.5% solutions in PBS(−) (Samples 2-4)
Procedure: After samples were prepared using a human epidermis model, production of filaggrin was observed by applying two staining methods, that is, an immunostaining method using an anti-filaggrin antibody and the method of Hematoxylin Eosin staining.
A human three-dimensional cultured epidermis model (hereinafter, “epidermis model”) (LabCyteEPI-MODEL24 6D: from Japan Tissue Engineering Co., Ltd.) was subjected to treatment in the following manner to prepare samples.
First, the epidermis model was incubated in an agar medium at room temperature for 24 hours. Thereafter, the epidermis model was cultured in a medium (an assay medium: from Japan Tissue Engineering Co., Ltd.) at 37° C. for 48 hours. […]
Thereafter, an anti-filaggrin antibody (from GeneTex, Inc.) was made to react with that section at 37° C. overnight, and an anti-mouse IgG Alexa Fluor (registered trademark) 488 antibody (from Cell Signaling Technology, Inc.) was further made to react at 37° C. for 2 hours. […] Then, green fluorescence and blue fluorescence were observed using a fluorescence microscope. The green fluorescence indicates the presence of filaggrin. The blue fluorescence is for confirming that there is no abnormality in cells of the epidermis model.

PEG-23 glycerol distearate [GDS23]
expression of profilaggrin mRNA, relative to N.C. = 100% ([1]; 0.002% in medium (Sample 18), 3 hours): about 120%
expression of caspase-14 mRNA, relative to N.C. = 100% ([2]; 0.0004% in medium (Sample 25)): about 150%
production quantity of filaggrin, relative to N.C. = 100% ([3]; 0.0025% in medium (Sample 9)): about 200%
production quantity of filaggrin, relative to N.C. = 100% ([3]; 0.0050% in medium (Sample 10)): about 200%

PEG-12 glycerol dimyristate [GDM12]
increase of expression of profilaggrin mRNA versus N.C. ([1]; 0.001% in medium (Sample 15), 3 hours): slight
expression of profilaggrin mRNA, relative to N.C. = 100% ([1]; 0.004% in medium (Sample 16), 3 hours): about 150%
expression of caspase-14 mRNA versus N.C. ([2]; 0.001% in medium (Sample 20)): increased
expression of caspase-14 mRNA versus N.C. ([2]; 0.004% in medium (Sample 21)): increased
expression of caspase-14 mRNA, relative to N.C. = 100% ([2]; 0.020% in medium (Sample 22)): about 200%
expression of caspase-14 mRNA, relative to N.C. = 100% ([2]; 0.100% in medium (Sample 23)): about 400%
concentration dependence of increase of caspase-14 mRNA ([2]; Samples 20-23 (0.001% to 0.100%)): the increase is larger as the concentration of GDM12 is higher
production quantity of filaggrin, relative to N.C. = 100% ([3]; 0.0005% in medium (Sample 6)): ≥ 200%
production quantity of filaggrin, relative to N.C. = 100% ([3]; 0.0010% in medium (Sample 7)): ≥ 200%
concentration dependence of production quantity of filaggrin [4]: more as the concentration of the GDM12 solution is higher
production quantity of filaggrin in the stratum corneum (green fluorescence) versus N.C. ([4]; 30 μL on stratum corneum, 18 hours, model recovered 6 days after application): more than that of the epidermis model of N.C.

PEG-12 glycerol distearate [GDS12]
expression of profilaggrin mRNA, relative to N.C. = 100% ([1]; 0.050% in medium (Sample 13), 3 hours): about 150%
expression of profilaggrin mRNA, relative to N.C. = 100% ([1]; 0.100% in medium (Sample 12), 3 hours): about 150%
concentration dependence of increase of profilaggrin mRNA ([1]; Samples 12 and 13 (0.100%, 0.050%)): the increase is larger as the concentration of GDS12 is higher
